This series can be described thus: Solubility of the solid-state forms in organic solvents. The conditions noted are these: for solubility: organic solvent or mixture. In kind it is physicochemical.

≈ marks a conversion by molar mass, not a printed value. Like-named read-outs stand apart in the source and are kept apart here. A value given as a limit tells only on which side of the number the result lay.

Take `CS(=O)(=O)CC(=O)N1CC2(C1)OCc1cc(C3=NOC(c4cc(Cl)c(F)c(Cl)c4)(C(F)(F)F)C3)ccc12` (racemic) [crystal racemate, (S/R)-1-(5′-(5-(3,5-dichloro-4-fluorophenyl)-5-(trifluoromethyl)-4,5-dihydroisoxazol-3-yl)-3′H-spiro[azetidine-3,1′-isobenzofuran]-1-yl)-2-(methylsulfonyl)ethanone]: where the note is “acetone, room temperature (approximately 22° C.)”, the solubility in acetone result was “less than 10 mg/mL”. Further, the “solubility in methyl t-butyl ether” value (methyl t-butyl ether) is given as less than 1 mg/mL.
As a reminder, the solubility is the dissolved amount per volume that the medium holds. In the case of `CS(=O)(=O)CC(=O)N1CC2(C1)OCc1cc(C3=NO[C@@](c4cc(Cl)c(F)c(Cl)c4)(C(F)(F)F)C3)ccc12` [Form A, (S)-1-(5′-(5-(3,5-dichloro-4-fluorophenyl)-5-(trifluoromethyl)-4,5-dihydroisoxazol-3-yl)-3′H-spiro[azetidine-3,1′-isobenzofuran]-1-yl)-2-(methylsulfonyl)ethanone], the solubility reads like this: (methyl t-butyl ether, read-out: solubility in methyl t-butyl ether) 11 mg/mL (≈ 18.9 mM); (acetone, room temperature (approximately 22° C.), read-out: solubility in acetone) more than 300 mg/mL.

The values above are taken from patent US9200003B2, “Crystalline forms of 1-(5′-(5-(3,5-dichloro-4-fluorophenyl)-5-(trifluoro-methyl)-4,5-dihydroisoxazol-3-yl)-3′H-spiro[azetidine-3,1′-isobenzofuran]-1-yl)-2-(methylsulfonyl) ethanone” (Zoetis Services LLC, priority 2012, dated 2015).
